Assay results reported in US9518046B2 (Calitor Sciences, LLC, priority 2015, dated 2016).

Assay: Pharmacokinetics after intravenous and oral administration in rats
Assay type: in vivo
Conditions: for CL/F / bioavailability: Rats; for CL/F: iv dosing, dose 1 mg/kg (0.5 for Ex. 1, 10, 11, 35; 0.48 for Ex. 24); for AUC(0-t) / half-life / Vd / bioavailability: rat, plasma; for AUC(0-t) / half-life / Vd: iv, 1 mg/kg; for Vd: read-out: Vss; for bioavailability: oral (p.o.) generally 5 or 10 mg/kg versus iv dosing
Protocol: The LC/MS/MS system used in the analysis consists of an Agilent 1200 Series vacuum degasser, binary pump, well-plate autosampler, thermostatted column compartment, the Agilent G6430 Triple Quadrupole Mass Spectrometer with an electrosprayionization (ESI) source. Quantitative analysis was carried out using MRM mode. The parameters for MRM transitions are in the Table A.
An Agilent XDB-C18, 2.1×30 mm, 3.5 M column was used for the analysis. 5 L of the samples were injected. Analysis condition: The mobile phase was 0.1% formic acid in water (A) and 0.1% formic acid in methanol (B). The flow rate was 0.4 mL/min. And the gradient of Mobile phase was in the Table B.
Alternatively, an Agilent 6330 series LC/MS/MS spectrometer equipped with G1312A binary pumps, a G1367A autosampler and a G1314C UV detector were used in the analysis. An ESI source was used on the LC/MS/MS spectrometer. The analysis was done in positive ion mode as appropriate and the MRM transition for each analyte was optimized using standard solution. A Capcell MP-C18 100×4.6 mm I.D., […] column (Phenomenex, Torrance, Calif., USA) was used during the analysis. The mobile phase was 5 mM ammonia acetate, 0.1% MeOH in water (A): 5 mM ammonia acetate, 0.1% MeOH in acetonitrile (B) (70:30, v/v). The flow rate was 0.6 mL/min. Column was maintained at ambient temperature. 20 μL of the samples were injected.
The compounds disclosed herein are assessed in pharmacokinetic studies in mice, rats, dogs or monkeys. The compounds are administered as a water solution, 2% HPMC+1% TWEEN®80 in water solution, 5% DMSO+5% solutol in saline, 4% MC suspension or capsule. For the intravenous administration, the animals are generally given at 1 or 2 mg/kg dose. For the oral (p.o.) dosing, mice and rats are generally given 5 or 10 mg/kg dose, and dogs and monkeys are generally given 10 mg/kg dose. The blood samples (0.3 mL) are drawn at 0.25, 0.5, 1.0, 2.0, 3.0, 4.0, 6.0, 8.0, 12 and 24 h time points or 0.083, 0.25, 0.5, 1.0, 2.0, 4.0, 6.0, 8.0 and 24 h time points and centrifuged at 3,000 or 4000 rpm for 2 to 10 min. The plasma solutions are collected, stored at −20° C. or −70° C. until analyzed by LC/MS/MS as described above.

Structure (SMILES)	CL/F [mL/min/kg]	other results
CC[C@H](Nc1ncnc(N)c1-c1ncn(C)n1)c1nc2cccc(Cl)c2c(=O)n1-c1ccccc1 [Ex. 32, (S)-2-(1-((6-amino-5-(1-methyl-H-1,2,4-triazol-3-yl)pyrimidin-4-yl)amino)-propyl)-5-chloro-3-phenylquinazolin-4(3H)-one]	43.3	
CC[C@H](Nc1ncnc(N)c1-c1noc(C)n1)c1nc2cccc(Cl)c2c(=O)n1-c1ccccc1 [Ex. 13, (S)-2-(1-((6-amino-5-(5-methyl-1,2,4-oxadiazol-3-yl)pyrimidin-4-yl)amino)-propyl)-5-chloro-3-phenylquinazolin-4(3H)-one]	72.5	
CC[C@H](Nc1ncnc(N)c1-c1ncn(C)n1)c1nc2cccc(C)c2c(=O)n1C1CC1 [Ex. 18, (S)-2-(1-((6-amino-5-(1-methyl-1H-1,2,4-triazol-3-yl)pyrimidin-4-yl)amino)propyl)-3-cyclopropyl-5-methylquinazolin-4(3H)-one]	54.2	
CC[C@H](Nc1ncnc(N)c1-c1nnc(C)o1)c1nc2cccc(C)c2c(=O)n1C1CC1 [Ex. 20]	77.3	
CC[C@H](Nc1ncnc(N)c1-c1nnc(C)o1)c1nc2cccc(F)c2c(=O)n1-c1ccccc1 [Ex. 40, (S)-2-(1-((6-amino-5-(5-methyl-1,3,4-oxadiazol-2-yl)pyrimidin-4-yl)amino)-propyl)-5-fluoro-3-phenylquinazolin-4(3H)-one]	57.3	
CCc1noc(-c2c(N)ncnc2N[C@@H](CC)c2nc3cccc(Cl)c3c(=O)n2C2CC2)n1 [Ex. 56, (S)-2-(1-((6-amino-5-(3-ethyl-1,2,4-oxadiazol-5-yl)pyrimidin-4-yl)amino)-propyl)-5-chloro-3-cyclopropylquinazolin-4(3H)-one]	74.7	
CC[C@H](Nc1ncnc(N)c1-c1nnc(C)o1)c1nc2ccccc2c(=O)n1-c1ccccc1F (single isomer, unassigned) [Ex. 24]	70.5	
CC[C@H](Nc1ncnc(N)c1-c1nnc(C)o1)c1nc2cccc(Cl)c2c(=O)n1-c1ccccc1 [Ex. 1, (S)-2-(1-((6-amino-5-(5-methyl-1,3,4-oxadiazol-2-yl)pyrimidin-4-yl)amino)-propyl)-5-chloro-3-phenylquinazolin-4(3H)-one]	47.3	
CC[C@H](Nc1ncnc(N)c1-c1nc(C)no1)c1nc2ccccc2c(=O)n1-c1ccccc1F (single isomer, unassigned) [Ex. 22]	159	
CC[C@H](Nc1ncnc(N)c1-c1ncn(C)n1)c1nc2cccc(F)c2c(=O)n1C1CC1 [Ex. 26, (S)-2-(1-((6-amino-5-(1-methyl-1H-1,2,4-triazol-3-yl)pyrimidin-4-yl)amino)propyl)-3-cyclopropyl-5-fluoroquinazolin-4(3H)-one]	37	
CC[C@H](Nc1ncnc(N)c1-c1nc(C)co1)c1nc2cccc(Cl)c2c(=O)n1C1CC1 [Ex. 52, (S)-2-(1-((6-amino-5-(4-methyloxazol-2-yl)pyrimidin-4-yl)amino)propyl)-5-chloro-3-cyclopropylquinazolin-4(3H)-one]	85.7	
CC[C@H](Nc1ncnc(N)c1-c1nnc(C)o1)c1nc2cccc(-c3cnn(C)c3)c2c(=O)n1-c1ccccc1 [Ex. 73, (S)-2-(1-((6-amino-5-(5-methyl-1,3,4-oxadiazol-2-yl)pyrimidin-4-yl)amino)propyl)-5-(1-methyl-1H-pyrazol-4-yl)-3-phenylquinazolin-4(3H)-one]	20.7	AUC(0-t): 807 ng·h/mL; half-life: 0.85 h; Vd: 1.44 L/kg; bioavailability: 104%
CC[C@H](Nc1ncnc(N)c1-c1nnn(C)n1)c1nc2cccc(F)c2c(=O)n1-c1ccccc1 [Ex. 43, (S)-2-(1-((6-amino-5-(2-methyl-2H-tetrazol-5-yl)pyrimidin-4-yl)amino)-propyl)-5-fluoro-3-phenylquinazolin-4(3H)-one]	36.8	
CC[C@H](Nc1ncnc(N)c1-c1nc(C)no1)c1nc2cccc(F)c2c(=O)n1C1CC1 [Ex. 23, (S)-2-(1-((6-amino-5-(3-methyl-1,2,4-oxadiazol-5-yl)pyrimidin-4-yl)amino)-propyl)-3-cyclopropyl-5-fluoroquinazolin-4(3H)-one]	71.3	
CC[C@H](Nc1ncnc(N)c1-c1nc(C)no1)c1nc2cccc(-c3cnn(C)c3)c2c(=O)n1-c1ccccc1 [Ex. 74, (S)-2-(1-((6-amino-5-(3-methyl-1,2,4-oxadiazol-5-yl)pyrimidin-4-yl)amino)propyl)-5-(1-methyl-1H-pyrazol-4-yl)-3-phenylquinazolin-4(3H)-one]	14.3	AUC(0-t): 1120 ng·h/mL; half-life: 1.56 h; Vd: 1.83 L/kg; bioavailability: 105%
CC(C)c1nc(-c2c(N)ncnc2N[C@@H](C)c2nc3cccc(Cl)c3c(=O)n2C2CC2)no1 [Ex. 59, (S)-2-(1-((6-amino-5-(5-isopropyl-1,2,4-oxadiazol-3-yl)pyrimidin-4-yl)amino)ethyl)-5-chloro-3-cyclopropylquinazolin-4(3H)-one]	73.7	
CC[C@H](Nc1ncnc(N)c1-c1nnc(C)o1)c1nc2cccc(C)c2c(=O)n1-c1ccccc1 [Ex. 38, (S)-2-(1-((6-amino-5-(5-methyl-1,3,4-oxadiazol-2-yl)pyrimidin-4-yl)amino)-propyl)-5-methyl-3-phenylquinazolin-4(3H)-one]	71.3	
CC[C@H](Nc1ncnc(N)c1-c1noc(C)n1)c1nc2cccc(Cl)c2c(=O)n1C1CC1 [Ex. 12, (S)-2-(1-((6-amino-5-(5-methyl-1,2,4-oxadiazol-3-yl)pyrimidin-4-yl)amino)-propyl)-5-chloro-3-cyclopropylquinazolin-4(3H)-one]	31.8	
CC[C@@H](Nc1ncnc(N)c1-c1ccon1)c1nc2cccc(Cl)c2c(=O)n1C1CC1 [Ex. 49, (R)-2-(1-((6-amino-5-(isoxazol-3-yl)pyrimidin-4-yl)amino)propyl)-5-chloro-3-cyclopropylquinazolin-4(3H)-one]	85.3	
CC[C@H](Nc1ncnc(N)c1-c1ncn(C)n1)c1nc2cccc(Cl)c2c(=O)n1-c1ccc(F)cc1 [Ex. 50, (S)-2-(1-((6-amino-5-(1-methyl-1H-1,2,4-triazol-3-yl)pyrimidin-4-yl)amino)propyl)-5-chloro-3-(4-fluorophenyl)quinazolin-4(3H)-one]	86.7	
CC[C@@H](Nc1ncnc(N)c1-c1nc(C)no1)c1nc2cccc(Cl)c2c(=O)n1C1CC1 [Ex. 19, (R)-2-(1-((6-amino-5-(3-methyl-1,2,4-oxadiazol-5-yl)pyrimidin-4-yl)amino)propyl)-5-chloro-3-cyclopropylquinazolin-4(3H)-one]	127	
CC[C@H](Nc1ncnc(N)c1-c1noc(C)n1)c1nc2cccc(F)c2c(=O)n1C1CC1 [Ex. 16, (S)-2-(1-((6-amino-5-(5-methyl-1,2,4-oxadiazol-3-yl)pyrimidin-4-yl)amino)-propyl)-3-cyclopropyl-5-fluoroquinazolin-4(3H)-one]	68.7	
CC[C@H](Nc1ncnc(N)c1-c1nc(C(N)=O)n(C)n1)c1nc2cccc(Cl)c2c(=O)n1C1CC1 [Ex. 58, (S)-3-(4-amino-6-((1-(5-chloro-3-cyclopropyl-4-oxo-3,4-dihydroquinazolin-2-yl)propyl)amino)pyrimidin-5-yl)-1-methyl-1H-1,2,4-triazole-5-carboxamide]	26.2	
C[C@H](Nc1ncnc(N)c1-c1nnn(C)n1)c1nc2cccc(Cl)c2c(=O)n1C1CC1 [Ex. 42, (S)-2-(1-((6-amino-5-(2-methyl-2H-tetrazol-5-yl)pyrimidin-4-yl)amino)ethyl)-5-chloro-3-cyclopropylquinazolin-4(3H)-one]	82	
CC[C@H](Nc1ncnc(N)c1-c1ncnn1C)c1nc2cccc(Cl)c2c(=O)n1C1CC1 [Ex. 9, 2-((1S)-1-((6-amino-5-(1-methyl-1H-1,2,4-triazol-5-yl)pyrimidin-4-yl)amino)-propyl)-5-chloro-3-cyclopropylquinazolin-4(3H)-one]	27.3	
C[C@H](Nc1ncnc(N)c1-c1nnn(C)n1)c1nc2cccc(-c3cnn(C)c3)c2c(=O)n1C1CC1 [Ex. 75, (S)-2-(1-((6-amino-5-(2-methyl-2H-tetrazol-5-yl)pyrimidin-4-yl)amino)ethyl)-3-cyclopropyl-5-(1-methyl-1H-pyrazol-4-yl)quinazolin-4(3H)-one]	19.8	AUC(0-t): 841 ng·h/mL; half-life: 1.41 h; Vd: 2.01 L/kg; bioavailability: 72.5%
